# Source: US20070116781A1, “Hydrogen Cyanamide Pesticide Formulations” (priority 2005, published 2007)
# Key:
# weed combination = experiment: Herbicidal activity of citric acid alone, pre-emergence, covered pots; assay type: in vivo
# Experimental: The weeds used in these tests were the same as those used in Example 4, and observations were made of the effects on individual weeds as well as the weed population as a whole.
# A stock solution of citric acid was made in the manner described in Example 4, and all other test parameters were likewise the same as in Example 4. Weed counts were taken from the various pots at intervals of 7, 12, and 28 days after application of the citric acid, and data analyses were performed in the same manner as Example 1.
# sicklepod = experiment: Herbicidal activity, cyanamide and citric acid, pre-emergence, covered pots; assay type: in vivo, Senna obtusifolia; conditions: C6H8O7 150 mg/kg soil
# Experimental: (§1) The weeds used in these tests were grown from a standard weed seed pack of common annual and perennial weeds representing an extreme weed situation. The weeds included crabgrass (Digitaria sanguinalis), yellow nutsedge (Cyperus esculentus), […] (Ipomoea spp.), pigweed (Amaranthus spp.), and other annual weeds. Observations of the effects on the weed population as a whole were made, and individual observations were made for crabgrass, yellow nutsedge, sicklepod, morningglory, and pigweed. Stock solutions of hydrogen cyanamide at 1.25% by weight and citric acid at 5.0% by weight, both in water, were prepared, the hydrogen cyanamide from a phosphate-buffered 50% aqueous solution. […] Data analyses were performed in the same manner as Example 1. The results expressed in weeds per pot are listed in Table XIV for all weeds, Table XV for crabgrass, Table XVI for yellow nutsedge, Table XVII for sicklepod, Table XVIII for morningglory, and Table XIX for pigweed, all at various application rates for hydrogen cyanamide, with and without citric acid.
# morningglory = experiment: as above; assay type: in vivo, Ipomoea spp.; conditions: C6H8O7 150 mg/kg soil
# Experimental: as §1
# combined weed species = experiment: as above; assay type: in vivo; conditions: C6H8O7 150 mg/kg soil
# Experimental: as §1
# crabgrass = experiment: as above; assay type: in vivo, Digitaria sanguinalis; conditions: C6H8O7 150 mg/kg soil
# Experimental: as §1
# yellow nutsedge = experiment: as above; assay type: in vivo, Cyperus esculentus; conditions: C6H8O7 150 mg/kg soil
# Experimental: as §1
compound,measurement,setting,value
"O=C(O)CC(O)(CC(=O)O)C(=O)O [C6H8O7, 2-hydroxy-1,2,3-propanetricarboxylic acid]",Weeds Per Pot (weed combination),"weed combination; 7 d after treatment, citric acid 50 mg/kg soil",16.6
same,Weeds Per Pot (weed combination),"weed combination; 7 d after treatment, citric acid 100 mg/kg soil",11.1
same,Weeds Per Pot (weed combination),"weed combination; 7 d after treatment, citric acid 150 mg/kg soil",14.0
same,Weeds Per Pot (weed combination),"weed combination; 7 d after treatment, citric acid 200 mg/kg soil",12.2
same,Weeds Per Pot (weed combination),"weed combination; 7 d after treatment, citric acid 250 mg/kg soil",11.5
same,Weeds Per Pot (weed combination),"weed combination; 12 d after treatment, citric acid 50 mg/kg soil",29.8
same,Weeds Per Pot (weed combination),"weed combination; 12 d after treatment, citric acid 100 mg/kg soil",25.5
same,Weeds Per Pot (weed combination),"weed combination; 12 d after treatment, citric acid 200 mg/kg soil",20.6
same,Weeds Per Pot (weed combination),"weed combination; 28 d after treatment, citric acid 50 mg/kg soil",28.0
same,Herbicidal activity of citric acid,"weed combination; pre-emergence, covered pots",negligible except at extremely high application rates
same,Weeds Per Pot: Sicklepod,sicklepod; 13 d after treatment,4.6
same,Weeds Per Pot: Sicklepod,sicklepod; 19 d after treatment,5.6
same,Weeds Per Pot: Sicklepod,sicklepod; 26 d after treatment,5.3
same,Weeds Per Pot: Morningglory,morningglory; 13 d after treatment,1.1
same,Weeds Per Pot: Morningglory,morningglory; 19 d after treatment,0.9
same,Weeds Per Pot: Morningglory,morningglory; 26 d after treatment,5.3
same,Weeds Per Pot (combined weed species),combined weed species; 9 d after treatment,10.6
same,Weeds Per Pot (combined weed species),combined weed species; 13 d after treatment,15.0
same,Weeds Per Pot (combined weed species),combined weed species; 19 d after treatment,16.5
same,Weeds Per Pot (combined weed species),combined weed species; 26 d after treatment,16.0
same,Weeds Per Pot: Crabgrass,crabgrass; 9 d after treatment,4.6
same,Weeds Per Pot: Crabgrass,crabgrass; 13 d after treatment,8.6
same,Weeds Per Pot: Crabgrass,crabgrass; 19 d after treatment,9.3
same,Weeds Per Pot: Crabgrass,crabgrass; 26 d after treatment,8.1
same,Weeds Per Pot: Yellow Nutsedge,yellow nutsedge; 13 d after treatment,0.7
same,Weeds Per Pot: Yellow Nutsedge,yellow nutsedge; 19 d after treatment,0.9
same,Weeds Per Pot: Yellow Nutsedge,yellow nutsedge; 26 d after treatment,0.9
